Columns and labels:
[1] = system: IL-6, IL-8, TNFα in healthy, differentiated cells; experiment: innate immune response (qRT-PCR, cytokine quantification); assay type: cell-based, human
Procedure: RNA was prepared with the RNeasy Mini Kit (QIAGEN, Hilden, Germany) and treated with DNAse I (QIAGEN). cDNA was synthesized using the Superscript III first strand RT-PCR system (Invitrogen). PCR of spliced and un-spliced XBP1 was as described (Yoshida et al., 2001, Cell 107: 881-891). Real-time PCR was performed on a Rotorgene 2000 instrument (Corbett Life Science, Sydney, Australia) using TaqMan Gene Expression Assays (Applied BioSystems) CHOP/DDIT3 (Hs01090850), IL6 (Hs00985639), IL8 (Hs00174103) and TNFα (Hs00174128). GAPDH (Hs99999905_m1) was used for normalization.
Equal volumes of lysates were separated by SDS-PAGE on 4-12% Bis-Tris gels (Invitrogen) and blotted onto PVDF membranes. For other Western blots, 200,000 cells were allowed to adhere overnight in a 6-well plate. After HAMLET treatment the cells were washed with PBS and lysed in M-PER lysis buffer (Pierce) containing Complete protease inhibitor cocktail and PhosSTOP phosphatase inhibitor cocktail (both from Roche). The detached cells were collected by centrifugation. The lysates were cleared by centrifugation and protein concentrations were measured using the DC Protein Assay (Bio-Rad Laboratories, Hercules, Calif.). Equal amounts of protein were separated by SDS-PAGE on 4-12% Bis-Tris gels (Invitrogen) and blotted onto PVDF membranes (GE Healthcare). Membranes were saturated with BSA (GAPDH) or nonfat dry milk (phospho-p38, p38, phospho-ERK1/2, ERK1/2) and incubated with anti-p38, anti-phospho-p38, anti-ERK1/2, anti-phospho-(Thr202/Tyr204)-p44/42 (all 1:500-1000, Cell Signaling Technology), anti-ATF6 (1:1000, IMG-273, Imgenex), anti-phospho-eIF2α (Ser51), (1:500, Cell Signaling Technology) or anti-GAPDH (1:3000-5000, Novus Biologicals) antibodies followed by horseradish peroxidase-conjugated anti-rabbit (1:1000, DakoCytomation, Glostrup, Denmark) or anti-mouse (1:40000-50000, Novus Biologicals) antibodies for staining. Bound antibodies were detected with ECL Plus Western Blotting Reagent (GE Healthcare, Little Chalfont, UK) and GelDoc equipment (Bio-Rad Laboratories, Hercules, Calif.). If required, membranes were stripped with Restore Western Blot Stripping Buffer (Pierce, Rockford, Ill.), blocked and reprobed with new antibodies. MAP kinase phosphorylation was analyzed on a Human Phospho-MAPK array (Proteome Profiler Array, R&D Systems) as per the manufacturer's instruction. Band and spot intensities were quantified using ImageJ (Abramoff et al., July 2004, Biophotonics International). Cytokine quantification (IL6, IL8, TNFα) was performed on an […] 1000 immunoassay system (Siemens Diagnostics).
To examine the molecular basis of the difference in HAMLET susceptibility between carcinoma cells and healthy, differentiated cells, transcriptional profiles were compared.
To further examine if the innate immune response in healthy, differentiated cells requires functional ion channels, the expression of IL-6, IL-8 and TNFα mRNA was quantified in cells pretreated with amiloride and BaCl2, using qRT-PCR.

[2] = system: A549 lung carcinoma cells; experiment: global transcriptional response, whole genome arrays (Affymetrix); assay type: cell-based, human
Procedure: For the microarray analysis with ion channel inhibitors, 200,000 A549 cells/well were allowed to adhere overnight on a 6-well plate. After 1 hour of HAMLET treatment, the cells were lysed and RNA was extracted using the RNeasy Mini Kit (QIAGEN). The samples were sent to AROS Applied Biotechnology (Århus, Denmark) for analysis. Data was preprocessed using RMA implemented in the free software packages “affy” as provided by R and Bioconductor (<www.r-project.org>). Differentially expressed genes were identified using empirically Bayes adjusted t-statistics and characterized using the Functional Annotation Clustering Tool in the Database for Annotation, Visualization and Integrated Discovery (DAVID), (Dennis et al., 2003 Genome Biology 4(5): P3) and Ingenuity Pathway Analysis (Ingenuity Systems). All microarray data were registered into NCBI's Gene Expression Omnibus (GEO) database (<www.ncbi.nlm.nih.gov/projects/geo>) with accession numbers GSE23772.
To understand the mechanisms of carcinoma cell death and the contribution of ion channel activation, the global transcriptional response to HAMLET was examined, using whole genome arrays. A549 lung carcinoma cells were exposed to HAMLET (21 μM) for one hour and cells pretreated with amiloride were compared to cells in medium alone. […] An unbiased global overview of transcription was obtained by performing a hierarchical clustering of the top 3000 genes by variance and was visualized in a heatmap (FIG. 2D and FIG. 13). Genes with empirical Bayes adjusted p-values <0.05 and log 2 fold changes >1 were considered differentially expressed and were functionally characterized using Database for Annotation, Visualization and Integrated Discovery, (Dennis et al., supra, 2003) and Ingenuity Pathway Analysis.
In total 12 RNA samples were generated (triplicate of control, oleic Acid, HAMLET, and oleate-treated) and hybridized to Affymetrix Whole Genome microarrays U219. […] For statistical analysis normalized data were linear model fitted and Empirical Bayesian analysis, coupled with p-value adjustment, performed.

[3] = Example 5, Affymetrix U219, adjusted p-value <0.05 and log 2-foldchange of 1

## [Ba+2].[Cl-].[Cl-] [BaCl2, barium chloride]
[1]
  effect of inhibitor on HAMLET induced TNFα expression: caused a reduction
  effect of inhibitor on IL-6 and IL-8 response to HAMLET: did not inhibit

## NC(N)=NC(=O)c1nc(Cl)c(N)nc1N [amiloride, 3,5-diamino-6-chloro-N-(diaminomethylene)pyrazine-2-carboxamide]
[2]
  effect of inhibitor alone on transcription: no significant effect on transcription
[2]; HAMLET 21 μM, one hour
  number of differentially expressed genes in response to HAMLET in cells pretreated with inhibitor: 52 genes
[1]
  effect of inhibitor on HAMLET-induced IL-6 mRNA: abolished

## CCCCCCCC/C=C\CCCCCCCC(=O)[O-].[Na+] [oleate, sodium oleate]
[2]; [3]
  number of differentially expressed genes: 426 genes
[2]; FIG. 7B
  global transcriptional response (heatmap, top 3000 genes by variance): very similar transcriptional response

B1: HAMLET (protein, UniProt P00709 20-142, looked up)
Alpha-lactalbumin: KQFTKCELSQLLKDIDGYGGIALPELICTMFHTSGYDTQAIVENNESTEYGLFQISNKLWCKSSQVPQSRNICDISCDKFLDDDITDDIMCAKKILDIKGIDYWLAHKALCTEKLEQWLCEKL
modifications: oleic acid complex
[2]; [3]
  number of differentially expressed genes: 336 genes
[2]; HAMLET 21 μM, one hour, no inhibitor, adjusted p-values <0.05, log 2 fold changes >1
  number of differentially expressed genes: 336 genes
[1]
  secreted protein levels of IL-6, IL-8, and TNFα: clear increase in secreted protein levels
[1]; HAMLET 21 μM, 1 hour, qRT-PCR
  increase in IL-6 mRNA: 30 fold
